The subject of one assay is HT-1080 (ATCC, CCL-121) cells. As to the kind of experiment: HT-1080 cell viability assay with ferroptosis inducer RSL3 (Cell Titer-Glo). In kind it is cell-based. The note with it: HT-1080 cells treated with RSL3; 3-fold, 10-point dilution, 1.1 μM highest concentration; Table 3; read-out: EC50 (nM), ferroptosis inhibitory activity. In short, it runs like this:
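HT-1080 cells (6000 per well) were cultured overnight at 37 °C, then co-treated with RSL3 and compound in a 3-fold, 10-point series topping at 1.1 μM. Viability was read by CellTiter-Glo luminescence and normalized to untreated controls. EC50 came from a sigmoidal non-linear regression fit.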
In the case of `Cc1cc(N2CCC(C(F)(F)F)C2)ccc1Nc1ccc2c(c1)OCC(=O)N2` (centres unmarked) [Compound 588, 7-((2-methyl-4-(3-(trifluoromethyl)pyrrolidin-1-yl)phenyl)amino)-2H-benzo[b][1,4]oxazin-3(4H)-one], the concentration giving a half-maximal response (EC50) was 0.1 to 100 nM.

The assay is the same for the next values; noted with them: Homo sapiens; HT-1080 cells treated with RSL3; 3-fold, 10-point dilution, 1.1 μM highest concentration; Table 3; read-out: EC50 (nM), ferroptosis inhibitory activity.
`Cc1cc(N2CCN(C(=O)C(F)(F)F)[C@@H](C)C2)ccc1Nc1ccc2c(c1)OCC(=O)N2` [Compound 552, (S)-7-((2-methyl-4-(3-methyl-4-(2,2,2-trifluoroacetyl)piperazin-1-yl)phenyl)amino)-2H-benzo[b][1,4]oxazin-3(4H)-one]: the concentration for a half-maximal effect (EC50) is 0.1 to 100 nM.

As to `C[C@H]1CN(c2ccc(Nc3ccc4c(c3)OCC(=O)N4)cc2)CCN1C(=O)C(F)(F)F` [Compound 553, (S)-7-((4-(3-methyl-4-(2,2,2-trifluoroacetyl)piperazin-1-yl)phenyl)amino)-2H-benzo[b][1,4]oxazin-3(4H)-one], the EC50 lay within 0.1 to 100 nM.

As to `O=C1COc2cc(Nc3ccc(N4CCC(F)CC4)cc3)cnc2N1` [Compound 554, 7-((4-(4-fluoropiperidin-1-yl)phenyl)amino)-2H-pyrido[3,2-b][1,4]oxazin-3(4H)-one], the 50% effective concentration (EC50) lay within 0.1 to 100 nM.

Take `Cc1cc(N2CCC(O)(C(F)(F)F)CC2)ccc1Nc1ccc2c(c1)OCCC(=O)N2` [Compound 555, 8-((4-(4-hydroxy-4-(trifluoromethyl)piperidin-1-yl)-2-methylphenyl)amino)-2,3-dihydrobenzo[b][1,4]oxazepin-4(5H)-one]: the EC50 was in the range of 0.1 to 100 nM.

Take `O=C1CCOc2cc(Nc3ccc(N4CCC(O)(C(F)(F)F)CC4)cc3)ccc2N1` [Compound 556, 8-((4-(4-hydroxy-4-(trifluoromethyl)piperidin-1-yl)phenyl)amino)-2,3-dihydrobenzo[b][1,4]oxazepin-4(5H)-one]: the EC50 was in the range of 0.1 to 100 nM.

With `CCC1CN(c2ccc(Nc3ccc4c(c3)OCCC(=O)N4)c(C)n2)CCO1` (centres unmarked) [Compound 557, 8-((6-(2-ethylmorpholino)-2-methylpyridin-3-yl)amino)-2,3-dihydrobenzo[b][1,4]oxazepin-4(5H)-one], the EC50 is 0.1 to 100 nM.

In the case of `Cc1cc(N2CCC(F)CC2)ccc1Nc1cnc2c(c1)OCC(=O)N2` [Compound 558, 7-(4-(4-fluoropiperidin-1-yl)-2-methylphenylamino)-2H-pyrido[3,2-b][1,4]oxazin-3(4H)-one], the concentration for a half-maximal effect (EC50) lay in the range of 0.1 to 100 nM.

For `COC(C)(C)C1CCN(c2ccc(Nc3ccc4c(c3)OCC(=O)N4)c(C)c2)CC1` [Compound 559, 7-((4-(4-(2-methoxypropan-2-yl)piperidin-1-yl)-2-methylphenyl)amino)-2H-benzo[b][1,4]oxazin-3(4H)-one], the concentration giving a half-maximal response (EC50) was 0.1 to 100 nM.

As for `COC(C)(C)C1CCN(c2ccc(Nc3ccc4c(c3)OCC(=O)N4)cc2)CC1` [Compound 560, 7-((4-(4-(2-methoxypropan-2-yl)piperidin-1-yl)phenyl)amino)-2H-benzo[b][1,4]oxazin-3(4H)-one], the concentration for a half-maximal effect (EC50) was in the range of 0.1 to 100 nM.

`CC1CN(c2ccc(Nc3ccc4c(c3)OCC(=O)N4)cc2)CC(C(F)(F)F)O1` (centres unmarked) [Compound 561, 7-((4-(2-methyl-6-(trifluoromethyl)morpholino)phenyl)amino)-2H-benzo[b][1,4]oxazin-3(4H)-one]: the EC50 is 0.1 to 100 nM.

With `Cc1cc(N2CC(C)OC(C(F)(F)F)C2)ccc1Nc1ccc2c(c1)OCC(=O)N2` (centres unmarked) [Compound 562, 7-((2-methyl-4-(2-methyl-6-(trifluoromethyl)morpholino)phenyl)amino)-2H-benzo[b][1,4]oxazin-3(4H)-one], the EC50 lay within 0.1 to 100 nM.

For `Cc1cc(N2CCCC2)ccc1Nc1ccc2c(c1)OCC(=O)N2` [Compound 563, 7-((2-methyl-4-(pyrrolidin-1-yl)phenyl)amino)-2H-benzo[b][1,4]oxazin-3(4H)-one], the EC50 was 0.1 to 100 nM.

For the compound `COc1cc(Nc2ccc(N3CCC(C(F)(F)F)CC3)cc2C)cc2c1NC(=O)CO2` [Compound 564, 5-methoxy-7-((2-methyl-4-(4-(trifluoromethyl)piperidin-1-yl)phenyl)amino)-2H-benzo[b][1,4]oxazin-3(4H)-one], the EC50 was 0.1 to 100 nM.

For `COc1cc(Nc2ccc(N3CCC(C(F)(F)F)CC3)cc2C)cc2c1N(C)C(=O)CO2` [Compound 565, 5-methoxy-4-methyl-7-((2-methyl-4-(4-(trifluoromethyl)piperidin-1-yl)phenyl)amino)-2H-benzo[b][1,4]oxazin-3(4H)-one], the 50% effective concentration (EC50) was in the range of 0.1 to 100 nM.

For the compound `Cc1cc(N2CCC(C(F)(F)F)CC2)ccc1Nc1ccc2c(c1)CN(C)C(=O)N2` [Compound 566, 3-methyl-6-({2-methyl-4-[4-(trifluoromethyl)piperidin-1-yl]phenyl}amino)-1,4-dihydroquinazolin-2-one], the half-maximal effective concentration (EC50) lay in the range of 0.1 to 100 nM.

Regarding `Cc1cc(N2CCC(C(F)(F)F)CC2)ccc1Nc1ccc2[nH]cnc2c1` [Compound 567], the concentration for a half-maximal effect (EC50) fell in the range of 0.1 to 100 nM.

As for `Cc1c(Nc2ccc(N3CCC(C(F)(F)F)CC3)cc2)ccc2c1OCC(=O)N2` [Compound 568, 8-methyl-7-((4-(4-(trifluoromethyl)piperidin-1-yl)phenyl)amino)-2H-benzo[b] [1,4] oxazin-3(4H)-one], the EC50 fell in the range of 0.1 to 100 nM.

As to `Cc1cc(N2CCN(CC(F)(F)F)CC2)ccc1Nc1ccc2c(c1)OCC(=O)N2` [Compound 569, 7-((2-methyl-4-(4-(2,2,2-trifluoroethyl)piperazin-1-yl)phenyl)amino)-2H-benzo[b][1,4] oxazin-3(4H)-one], the EC50 lay within 0.1 to 100 nM.

In the case of `Cc1cc(N2CCC(C(F)(F)F)CC2)ccc1Nc1ccc2c(c1)OC(CO)C(=O)N2C` (centres unmarked) [Compound 570, 2-(hydroxymethyl)-4-methyl-7-((2-methyl-4-(4-(trifluoromethyl)piperidin-1-yl)phenyl)amino)-2H-benzo[b][1,4]oxazin-3(4H)-one], the 50% effective concentration (EC50) lay within 0.1 to 100 nM.

With `Cc1cc(N2CCC(C(F)(F)F)CC2)ccc1Nc1ccc2[nH]cc(C(N)=O)c2c1` [Compound 571, 5-((2-methyl-4-(4-(trifluoromethyl)piperidin-1-yl)phenyl)amino)-1H-indole-3-carboxamide], the half-maximal effective concentration (EC50) was in the range of 0.1 to 100 nM.

As for `Cc1cc(N2CC(F)C2)ccc1Nc1ccc2c(c1)OCC(=O)N2` [Compound 572, 7-(4-(3-fluoroazetidin-1-yl)-2-methylphenylamino)-2H-benzo[b][1,4]oxazin-3(4H)-one], the EC50 lay in the range of 0.1 to 100 nM.

Consider `CCC1CN(c2ccc(Nc3ccc4c(c3)CNC(=O)N4)c(C)n2)CCO1` (centres unmarked) [Compound 573, 6-{[6-(2-ethylmorpholin-4-yl)-2-methylpyridin-3-yl]amino}-3,4-dihydro-1H-quinazolin-2-one], for which the EC50 was in the range of 0.1 to 100 nM.

On to `Cc1cc(N2CCC(C)CC2)ccc1Nc1cnc2c(c1)OCC(=O)N2` [Compound 575, 7-((2-methyl-4-(4-methylpiperidin-1-yl)phenyl)amino)-2H-pyrido[3,2-b][1,4]oxazin-3(4H)-one], for which the EC50 lay within 0.1 to 100 nM.

With `Cc1cc(N2CC(F)(F)C2)ccc1Nc1ccc2c(c1)OCC(=O)N2` [Compound 576, 7-((4-(3,3-difluoroazetidin-1-yl)-2-methylphenyl)amino)-2H-benzo[b][1,4]oxazin-3(4H)-one], the EC50 is 0.1 to 100 nM.

Take `Cc1cc(N2CC(C)C2)ccc1Nc1ccc2c(c1)OCC(=O)N2` [Compound 577, 7-((2-methyl-4-(3-methylazetidin-1-yl)phenyl)amino)-2H-benzo[b][1,4]oxazin-3(4H)-one]: the EC50 was in the range of 0.1 to 100 nM.

Turning to `COC1CN(c2ccc(Nc3ccc4c(c3)OCC(=O)N4)c(C)c2)C1` [Compound 578, 7-((4-(3-methoxyazetidin-1-yl)-2-methylphenyl)amino)-2H-benzo[b][1,4]oxazin-3(4H)-one], the EC50 is 0.1 to 100 nM.

As to `Cc1cc(N2CCC(C(F)(F)F)CC2)ccc1Nc1ccc2c(c1)CN(CC(N)=O)C2` [Compound 579, 2-(5-((2-methyl-4-(4-(trifluoromethyl)piperidin-1-yl)phenyl)amino)isoindolin-2-yl)acetamide], the EC50 is 0.1 to 100 nM.

For `Cc1cc(N2CCN(CC(F)(F)F)[C@@H](C)C2)ccc1Nc1ccc2c(c1)OCC(=O)N2` [Compound 580, (S)-7-((2-methyl-4-(3-methyl-4-(2,2,2-trifluoroethyl)piperazin-1-yl)phenyl)amino)-2H-benzo[b][1,4]oxazin-3(4H)-one], the half-maximal effective concentration (EC50) was in the range of 0.1 to 100 nM.

For the compound `C[C@H]1CN(c2ccc(Nc3ccc4c(c3)OCC(=O)N4)cc2)CCN1CC(F)(F)F` [Compound 581, (S)-7-((4-(3-methyl-4-(2,2,2-trifluoroethyl)piperazin-1-yl)phenyl)amino)-2H-benzo[b][1,4]oxazin-3(4H)-one], the EC50 was in the range of 0.1 to 100 nM.

With `O=C1CSc2cc(Nc3ccc(N4CCC(C(F)(F)F)CC4)cc3)ccc2N1` [Compound 582, 7-((4-(4-(trifluoromethyl)piperidin-1-yl)phenyl)amino)-2H-benzo[b][1,4]thiazin-3(4H)-one], the EC50 was in the range of 0.1 to 100 nM.

For `Cc1cc(N2CC(C(F)(F)F)C2)ccc1Nc1ccc2c(c1)OCC(=O)N2` [Compound 583, 7-((2-methyl-4-(3-(trifluoromethyl)azetidin-1-yl)phenyl)amino)-2H-benzo[b][1,4]oxazin-3(4H)-one], the 50% effective concentration (EC50) lay in the range of 0.1 to 100 nM.

On to `Cc1cc(N2CCC2)ccc1Nc1ccc2c(c1)OCC(=O)N2` [Compound 585, 7-((4-(azetidin-1-yl)-2-methylphenyl)amino)-2H-benzo[b][1,4]oxazin-3(4H)-one], for which the EC50 was 0.1 to 100 nM.

On to `Cc1cc(N2CCC2)ccc1Nc1ccc2c(c1)OCCC(=O)N2` [Compound 586, 8-((4-(azetidin-1-yl)-2-methylphenyl)amino)-2,3-dihydrobenzo[b][1,4]oxazepin-4(5H)-one], for which the EC50 lay in the range of 0.1 to 100 nM.

For the compound `Cc1cc(N2CCC(C(F)(F)F)C2)ccc1Nc1ccc2c(c1)OCC(=O)N2` (centres unmarked) [Compound 587, 7-((2-methyl-4-(3-(trifluoromethyl)pyrrolidin-1-yl)phenyl)amino)-2H-benzo[b][1,4]oxazin-3(4H)-one], the EC50 is 0.1 to 100 nM.
